Literature values in patent US5569647A, “Angiopeptin cyclopeptide compounds” (Adir et Compagnie, priority 1993, dated 1996).

Test system: cells of the vascular smooth muscle
Details: rat carotid artery, desiccation of the endothelium in air

angiopeptin
anti-proliferative effect in vivo on cells of the vascular smooth muscle: anti-proliferative effect in vivo
